US4981855A, “Medicament for psoriasis” (Takeda Chemical Industries, Ltd., priority 1988, dated 1991)

How the values were obtained:
[1] = test system: Type III Allergic Reaction (Reversed Passive Arthus Reaction); test: Type III allergic reaction (reversed passive Arthus reaction) in rats, oral (Experiment 1); assay type: in vivo, Rat (Jcl:SD); conditions: Rat; for inhibition in vivo at 3 mg/kg: 1 h, 3 mg/kg P.O., one hour before egg albumin, blue spot area vs. control, * P < 0.05, ** P < 0.01, read-out: Inhibition rate (%); for ED50: P.O., read-out: ID50 values
Experimental: Effect on Type III Allergic Reaction (Reversed Passive Arthus Reaction) in Rats
A group consisting of six Jcl:SD rats (7 week old, male) was used. The hair of the back of the animals was cut, under ether anesthesia, and 1 ml each of a 0.5% solution of egg albumin in physiological saline solution was injected into the tail vein of each test animal, followed by intradermal injection of 0.1 ml of rabbit anti-egg albumin antiserum at each of the left and right sides of the back and a further intradermal injection of 0.1 ml of physiological saline solution at the left side. Three hours later, each animal was intraveneously injected with 1 ml of 1% Evans' blue physiological saline solution. Thirty minutes later, the test animals were exfoliated and the area(mm^2) of each of the blue spots was measured. […] By comparing the area(mm^2) of the blue spot in the test group (treated group) with that of the control group (untreated group), inhibition rate was determined.

[2] = test system: Reversed Passive Arthus Reaction; test: Rat reversed passive Arthus reaction, percutaneous ointment (Experiment 2); assay type: in vivo, Rat (Jcl:SD); conditions: for Inhibition rate (%): ointment (white petrolatum base)
Experimental: A group consisting of six Jcl:SD rats (7 week old, male) was used. The hair of the back of the animals was cut, under ether anesthesia, and 1 ml each of a 0.5% solution of egg albumin in physiological saline solution was injected into the tail vein of each test animal, followed by intradermal injection of 0.1 ml of rabbit anti-egg albumin antiserum at each of the left and right sides of the back and a further intradermal injection of 0.1 ml of physiological saline solution at the left side. Three hours later, each animal was intraveneously injected with 1 ml of 1% Evans' blue physiological saline solution. Thirty minutes later, the test animals were exfoliated and the area(mm^2) of each of the blue spots was measured. The test sample in a dose of 3 mg/kg was orally administered one hour before the injection of egg albumin. By comparing the area(mm^2) of the blue spot in the test group (treated group) with that of the control group (untreated group), inhibition rate was determined.
In place of the oral administration of 3 mg/kg of each specimen, two type of ointments (of which base is white petrolatum) different in specimen content as given in Table 2 and control petrolatum were applied to the reaction sites in an experiment in a similar manner as in Experiment 1.

[3] = Acute toxicity in mice (Experiment 3); assay type: in vivo, Mouse (Jcl:ICR); conditions: mouse, in vivo
Text: (§1) The acute toxicity of the compound (A) was examined by using Jcl:ICR mice and JcL:Wistar rats.

Jcl:ICR mice = test: Acute toxicity in mice (Experiment 3); assay type: in vivo, Mouse (Jcl:ICR); conditions: mice and rats; intraperitoneal, subcutaneous and oral (Table 3)
Text: as §1

[4] = Acute toxicity in rats (Experiment 3); parameters: species or system Rat (JcL:Wistar); conditions: rat, in vivo
Text: as §1

[5] = test system: skin of the backs of rabbits (normal skin and damaged skin); test: Four-week cumulative skin irritation test in rabbits (Experiment 4); assay type: in vivo, Rabbit; conditions: 0.25 g once a day for 4 weeks
Text: Four-Week Cumulative Skin Irritation Test in Rabbits [Procedure]
0.25 g of each of white petrolatum (placebo) and 2.5% and 5.0% compound (A) ointments (of which base is white petrolatum) was applied to 2.5×2.5cm test sites (normal skin and damaged skin) formed on the skin of the backs of rabbits once a day for 4 weeks. The skin was observed daily according to the method of Draize [J. H. Draize et al., J. Pharmacol. Exp. Therap. 82, 337 (1944)]. On the day succeeding the completion of the administration, postmortem examinations were carried out and histopathologic examinations were conducted for the skin of the administrated sites.

Compound `CCn1c(=O)c2c(N)n(C(=O)OC)nc2n(CC)c1=O` [Compound 1] has an inhibition in vivo at 3 mg/kg [1] of 35% and an ED50 [1] of 13.7 mg/kg.

Work on `CCCn1c(=O)c2c(N)n(C(=O)OC)nc2n(CCC)c1=O` [Compound 2] yielded an inhibition in vivo at 3 mg/kg [1] of 50% and an ED50 [1] of 2.4 mg/kg.

`CCCn1c(=O)c2c(NC(C)=O)[nH]nc2n(CCC)c1=O` [Compound 3] showed an inhibition in vivo at 3 mg/kg [1] of 55% and an ED50 [1] of 2.9 mg/kg.

Work on `CCCn1c(=O)c2c(N(C)C)n(C)nc2n(CCC)c1=O` [Compound 4] yielded an inhibition in vivo at 3 mg/kg [1] of 56%.

With `CCCn1c(=O)c2c(N(C)C)nn(C)c2n(CCC)c1=O` [Compound 5] the inhibition in vivo at 3 mg/kg [1] was 53%.

For `CCCCn1c(=O)n(CCC)c(=O)c2c(NC)n(C(=O)OC)nc21` [Compound 6], the inhibition in vivo at 3 mg/kg [1] was 43% and the ED50 [1] was 5.3 mg/kg.

In the case of `CCCCn1c(=O)c2c(NC)n(C(=O)OC)nc2n(CCC)c1=O` [Compound 7], the inhibition in vivo at 3 mg/kg [1] is reported as 49% and the ED50 [1] is reported as 3 mg/kg.

In the case of `CCCCn1c(=O)c2c(NC)n(C(=O)OC)nc2n(CCCC)c1=O` [Compound 8], the inhibition in vivo at 3 mg/kg [1] is reported as 30% and the ED50 [1] is reported as 30 mg/kg.

`CCCCn1c(=O)c2c(NC)n(C)nc2n(CCCC)c1=O` [Compound 9] gave an inhibition in vivo at 3 mg/kg [1] of 31%.

With `CCCCn1c(=O)n(CCC)c(=O)c2c(NC)n(C(=O)OC)nc21` [Compound (A)] the “Inhibition rate (%)” value ([2]; 1.25 mg/site, *p < 0.05 vs. control) was 46%, the “Inhibition rate (%)” value ([2]; 2.5 mg/site, **p < 0.01 vs. control) was 59% and the “effect on reversed passive Arthus reaction” value ([2]; percutaneous administration) was “significantly depresses the reversed passive Arthus reaction”. For the same compound, the LD50 ([3]; ip, female, intraperitoneal) was 1260 mg/kg, the LD50 ([3]; ip, male, intraperitoneal) was 1040 mg/kg and the LD50 ([3]; po, female) was 6310 mg/kg. The LD50 ([3]; po, male) was 4650 mg/kg, the LD50 ([3]; sc, female, subcutaneous) was > 5000 mg/kg and the LD50 ([3]; sc, male, subcutaneous) was > 5000 mg/kg. The “acute toxicity” value (Jcl:ICR mice) was “low in toxicity and can be safely administered”, the LD50 ([4]; ip, female, intraperitoneal) was 580 mg/kg and the LD50 ([4]; ip, male, intraperitoneal) was 650 mg/kg. The LD50 ([4]; po, female) was 2380 mg/kg, the LD50 ([4]; po, male) was 2730 mg/kg and the LD50 ([4]; sc, female, subcutaneous) was > 6500 mg/kg. For the same compound, the LD50 ([4]; sc, male, subcutaneous) was > 6500 mg/kg, the cumulative skin irritation ([5]; 2.5% ointment (white petrolatum base)) was “no cumulative skin irritation” and the cumulative skin irritation ([5]; 5% ointment (white petrolatum base)) was “no cumulative skin irritation”.
